Tests used:
KRAS G12D = target: T1, KRAS G12D (Homo sapiens, UniProt P01116, G12D); assay: HTRF assay, KRAS G12D interaction with SOS1; type: biochemical; details: bins <500 nM / 500 nM to 1000 nM, read-out: Inhibition of KRAS G12D (IC50)
T1 construct: made in house; host or cells: E. coli, e.g. BL21 (DE3)
Text: (§1) This assay can be also used to assess a selective inhibition or reduction of signaling output of a mutant Ras protein relative to a wildtype, or relative to a different mutant Ras protein. For example, the equilibrium interaction of wildtype KRAS or K-Ras mutant (e.g., wildtype or a mutant thereof) with SOS1 (e.g., hSOS1) can be assessed as a proxy or an indication for the ability of a subject compound to bind and inhibit Ras protein. The HTRF assay detects from (i) a fluorescence resonance energy transfer (FRET) donor (e.g., antiGST-Europium) that is bound to GST-tagged K-Ras mutant to (ii) a FRET acceptor (e.g., anti-6His-XL665) bound to a His-tagged hSOSL1.
(§2) The assay buffer can contain ~5 mM HEPES pH 7.4, ~150 mM NaCl, ~1 mM DTT, 0.05% BSA and 0.0025% (v/v) Igepal. A Ras working solution is prepared in an assay buffer containing typically a suitable amount of the protein construct (e.g., GST-tagged K-Ras mutant) and the FRET donor (e.g., antiGST-Eu(K) from Cisbio, France). A SOS1 working solution is prepared in an assay buffer containing suitable amount of the protein construct (e.g., His-hSOS1) and the FRET acceptor (e.g., anti-6His-XL665 from Cisbio, France). A suitable amount of the protein construct will depend on the range of activity or range of IC50 values being detected or under investigation. For detecting an IC50 within a range of 500 nM, the protein constructs of the same range of molarity can be utilized.
(§3) A fixed volume of DMSO with or without test compound is transferred into a 384-well plate. Ras working solution is added to all wells of the test plate. SOS1 working solution is added to all wells except for those that are subsequently filled with inhibitor control solution. Upon incubation for about 10 minutes or longer, the fluorescence is measured with a M1000Pro plate reader (Tecan) using HTRF detection (excitation 337 nm, emission 1: 620 nm, emission 2: 665 nm). Compounds are tested in duplicate at different concentrations (for example, 10 μM, 2.5 μM, 0.63 μM, 0.16 μM, 0.04 μM, 0.01 μM test compound). The ratiometric data (i.e., emission 2 divided by emission 1) is used to calculate IC50 values against Ras using GraphPad Prism (GraphPad software). Signaling output measured in terms of IC50 values can be obtained and a ratio of IC50 against one mutant relative to another mutant can be calculated. For instance, a selective reduction of K-Ras G12S signaling output can be evidenced by a ratio greater than one. In particular, a selective reduction of K-Ras G12S signaling relative to K-Ras WT signaling is evidenced if the ratio of IC50 (against K-Ras WT) to IC50 (against K-Ras G12S) is greater than 1.

KRAS WT = target: T2, KRAS WT (Homo sapiens, UniProt P01116); assay: HTRF assay, wildtype KRAS interaction with SOS1; type: biochemical; details: bins <500 nM / 500 nM to 1000 nM, read-out: Inhibition of KRAS WT (IC50)
T2 construct: made in house; host or cells: E. coli, e.g. BL21 (DE3)
T2 sequence (P01116 1-188 isoform P01116-2): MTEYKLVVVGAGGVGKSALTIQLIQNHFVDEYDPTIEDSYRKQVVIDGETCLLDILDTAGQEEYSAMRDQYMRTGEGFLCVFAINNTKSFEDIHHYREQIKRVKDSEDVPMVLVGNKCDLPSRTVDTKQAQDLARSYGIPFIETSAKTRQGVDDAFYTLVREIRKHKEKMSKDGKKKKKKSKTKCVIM
Text: as §1, §2, §3

KRAS G12S = target: T3, KRAS G12S (Homo sapiens, UniProt P01116, G12S); assay: HTRF assay, KRAS G12S interaction with SOS1; type: biochemical; details: bins <500 nM / 500 nM to 1000 nM, read-out: Inhibition of KRAS G12S (IC50)
T3 construct: made in house; host or cells: E. coli, e.g. BL21 (DE3)
T3 sequence (P01116 1-188 isoform P01116-2 G12S): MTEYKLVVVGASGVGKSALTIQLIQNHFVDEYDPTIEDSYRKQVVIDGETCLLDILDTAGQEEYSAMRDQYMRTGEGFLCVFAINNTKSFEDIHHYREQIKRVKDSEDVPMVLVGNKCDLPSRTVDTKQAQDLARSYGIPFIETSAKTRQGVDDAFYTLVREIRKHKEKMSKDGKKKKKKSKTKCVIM
Text: as §1, §2, §3

KRAS G12V = target: T4, KRAS G12V (Homo sapiens, UniProt P01116, G12V); assay: HTRF assay, KRAS G12V interaction with SOS1; type: biochemical; details: bins <500 nM / 500 nM to 1000 nM, read-out: Inhibition of KRAS G12V (IC50)
T4 construct: made in house; host or cells: E. coli, e.g. BL21 (DE3)
T4 sequence (P01116 1-188 isoform P01116-2 G12V): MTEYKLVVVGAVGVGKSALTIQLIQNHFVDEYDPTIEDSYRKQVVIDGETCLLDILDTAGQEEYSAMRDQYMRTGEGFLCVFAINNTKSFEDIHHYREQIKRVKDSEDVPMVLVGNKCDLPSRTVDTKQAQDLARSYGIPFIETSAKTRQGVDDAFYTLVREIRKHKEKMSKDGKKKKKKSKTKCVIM
Text: as §1, §2, §3

MiaPaca2 cells = assay: Ras cellular assay, growth of cells with K-Ras G12C mutation; type: cell-based; details: Homo sapiens, MIA PaCa-2; cell proliferation assay; bins ≤500 nM / >500 nM; read-out: Inhibition of MiaPaca2 Cells (IC50)
Description: For example, this assay can be also used to assess selective growth inhibition of a mutant Ras protein relative to a wildtype or different mutant Ras protein.
MIA PaCa-2 (ATCC CRL-1420) and NCI-H1792 (ATCC CRL-5895) cell lines comprise a G12C mutation and can be used to assess Ras cellular signaling in vitro, e.g., in response to an inhibitor compound of the present disclosure. […] MIA PaCa-2 culture medium is prepared with DMEM/Ham's F12 (e.g., with stable glutamine, 10% FCS, and 2.5% horse serum. NCI-H1792 culture medium is prepared with RPMI 1640 (e.g., with stable glutamine) and 10% FCS.
On a first day (e.g., Day 1), Softagar (Select Agar, Invitrogen, 3% in ddH2O autoclaved) is boiled and tempered at 48° C. Appropriate culture medium (i.e., medium) is tempered to 37° C. Agar (3%) is diluted 1:5 in medium (=0.6%) and plated into 96 well plates (Corning, #3904), then incubated at room temperature for agar solidification. A 3% agar is diluted to 0.25% in medium (1:12 dilution) and tempered at 42° C. Cells are trypsinized, counted, and tempered at 37° C. The cells (e.g., MIA PaCa-2 at about 125-150 cells, NCI-H1792 at about 1000 cells) are resuspended in […] 0.25% Agar and plated, followed by incubation at room temperature for agar solidification. The wells are overlaid with […] of the medium. Sister wells in a separate plate are plated for time zero determination. All plates are incubated overnight at 37° C. and 5% CO2.
On a second day (e.g., Day 2), time zero values are measured. A […] volume of Cell Titer 96 Aqueous Solution (Promega) is added to each well and incubated in the dark at 37° C. and 5% CO2. Absorption can be measured at 490 nm and reference wavelength 660 nm. DMSO-prediluted test compounds are added to wells of interest, e.g., with HP Dispenser, to one or more desired concentrations (e.g., a final DMSO concentration of 0.3%).
On a tenth day (e.g., Day 10), absorption by wells treated with the test compounds and control wells are measured with, for example, Cell Titer 96 AQueous and analyzed in comparison to the time zero measurements. The IC50 values are determined using the four parameter fit. The resulting IC50 value is a measurement of the ability of the test compound to reduce cell growth of Ras-driven cells (e.g., tumor cell lines) in vitro and/or in vivo.

T1 sequence (P01116 1-188 isoform P01116-2 G12D): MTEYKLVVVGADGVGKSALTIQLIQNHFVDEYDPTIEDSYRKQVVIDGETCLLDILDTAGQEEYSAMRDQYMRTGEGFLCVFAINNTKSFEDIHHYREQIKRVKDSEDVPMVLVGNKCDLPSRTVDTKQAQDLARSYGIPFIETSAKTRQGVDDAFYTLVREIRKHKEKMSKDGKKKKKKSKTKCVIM

## Cc1cn(C(=O)N2CC[C@@]23CCN(c2nc(OC[C@@]45CCCN4C[C@H](F)C5)nc4c(F)c(-c5ccc(F)c6sc(N)c(C#N)c56)c(Cl)cc24)C3)cn1 (atropisomer, axis not shown; (aS)) [Compound 107, (R)-2-amino-4-(6-chloro-8-fluoro-2-(((2R,7aS)-2-fluorotetrahydro-1H-pyrrolizin-7a(5H)-yl)methoxy)-4-((R)-1-(4-methyl-1H-imidazole-1-carbonyl)-1,6-diazaspiro[3.4]octan-6-yl)quinazolin-7-yl)-7-fluorobenzo[b]thiophene-3-carbonitrile]
KRAS G12D
  IC50: < 500 nM
KRAS WT
  IC50: < 500 nM
KRAS G12S
  IC50: < 500 nM
KRAS G12V
  IC50: < 500 nM
MiaPaca2 cells
  IC50: ≤ 500 nM

## CCN(c1nc(OC[C@@]23CCCN2C[C@H](F)C3)nc2c(F)c(-c3ccc(F)c4sc(N)c(C#N)c34)c(C(F)(F)F)cc12)[C@@H]1CCN(C(=O)n2cc(C)nc2C)[C@@H]1C (atropisomer, axis not shown; (aS)) [Compound 114, (S)-2-amino-4-(4-(((2R,3R)-1-(2,4-dimethyl-1H-imidazole-1-carbonyl)-2-methylpyrrolidin-3-yl)(ethyl)amino)-8-fluoro-2-(((2R,7aS)-2-fluorotetrahydro-1H-pyrrolizin-7a(5H)-yl)methoxy)-6-(trifluoromethyl)quinazolin-7-yl)-7-fluorobenzo[b]thiophene-3-carbonitrile]
KRAS G12D
  IC50: < 500 nM
KRAS WT
  IC50: < 500 nM
KRAS G12S
  IC50: < 500 nM
KRAS G12V
  IC50: < 500 nM
MiaPaca2 cells
  IC50: ≤ 500 nM

## CC[C@H]1N(C(=O)n2cc(C#N)nc2C)C[C@]12CCCCN(c1nc(OC[C@@]34CCCN3C[C@H](F)C4)nc3c(F)c(-c4ccc(F)c5sc(N)c(C#N)c45)c(Cl)cc13)C2 (atropisomer, axis not shown; (aS)) [Compound 117, 1-((1R,4R)-6-(7-((R)-2-amino-3-cyano-7-fluorobenzo[b]thiophen-4-yl)-6-chloro-8-fluoro-2-(((2R,7aS)-2-fluorotetrahydro-1H-pyrrolizin-7a(5H)-yl)methoxy)quinazolin-4-yl)-1-ethyl-2,6-diazaspiro[3.6]decane-2-carbonyl)-2-methyl-1H-imidazole-4-carbonitrile]
KRAS G12D
  IC50: < 500 nM
KRAS WT
  IC50: < 500 nM
KRAS G12S
  IC50: < 500 nM
KRAS G12V
  IC50: < 500 nM
MiaPaca2 cells
  IC50: ≤ 500 nM

## CCN(c1nc(OC[C@@]23CCCN2C[C@H](F)C3)nc2c(F)c(-c3ccc(F)c4sc(N)c(C#N)c34)c(C(F)(F)F)cc12)[C@@H]1CCN(C(=O)n2cnc(F)n2)[C@@H]1C (atropisomer, axis not shown; (aS)) [Compound 125, 2-amino-4-((S)-4-(ethyl((2R,3R)-1-(3-fluoro-1H-1,2,4-triazole-1-carbonyl)-2-methylpyrrolidin-3-yl)amino)-8-fluoro-2-(((2R,7aS)-2-fluorotetrahydro-1H-pyrrolizin-7a(5H)-yl)methoxy)-6-(trifluoromethyl)quinazolin-7-yl)-7-fluorobenzo[b]thiophene-3-carbonitrile]
KRAS G12D
  IC50: < 500 nM
KRAS WT
  IC50: < 500 nM
KRAS G12S
  IC50: < 500 nM
KRAS G12V
  IC50: < 500 nM
MiaPaca2 cells
  IC50: ≤ 500 nM

## CC1CC(N(C)c2nc(OC[C@@]34CCCN3C[C@H](F)C4)nc3c(F)c(-c4ccc(F)c5sc(N)c(C#N)c45)c(Cl)cc23)CN1C(=O)n1cnc(F)n1 (mixture of isomers) [Compound 150, 2-amino-4-(6-chloro-8-fluoro-4-((1-(3-fluoro-1H-1,2,4-triazole-1-carbonyl)-5-methylpyrrolidin-3-yl)(methyl)amino)-2-(((2R,7aS)-2-fluorotetrahydro-1H-pyrrolizin-7a(5H)-yl)methoxy)quinazolin-7-yl)-7-fluorobenzo[b]thiophene-3-carbonitrile]
MiaPaca2 cells
  IC50: ≤ 500 nM

## CN(c1nc(OC[C@@]23CCCN2C[C@H](F)C3)nc2c(F)c(-c3ccc(F)c4sc(N)c(C#N)c34)c(Cl)cc12)C1CN(C(=O)n2ccnc2)CC1F (single isomer, unassigned) [Compound 189]
MiaPaca2 cells
  IC50: ≤ 500 nM

## CCN(c1nc(OCC23CCCN2C(COc2cc(C(F)(F)F)ncn2)CC3)nc2c(F)c(-c3ccc(F)c4sc(N)c(C#N)c34)c(Cl)cc12)[C@@H]1CCN(C(=O)n2cc(C)nc2C)[C@@H]1C (single isomer, unassigned) [Compound 217]
MiaPaca2 cells
  IC50: ≤ 500 nM

## CC1CC(N(C)c2nc(OC[C@@]34CCCN3C[C@H](F)C4)nc3c(F)c(-c4ccc(F)c5sc(N)c(C#N)c45)c(Cl)cc23)CCN1C(=O)n1ccnc1 (stereo partly drawn) [Compound 209, 4-(4-((1-(1H-imidazole-1-carbonyl)-2-methylpiperidin-4-yl)(methyl)amino)-6-chloro-8-fluoro-2-(((2R,7aS)-2-fluorotetrahydro-1H-pyrrolizin-7a(5H)-yl)methoxy)quinazolin-7-yl)-2-amino-7-fluorobenzo[b]thiophene-3-carbonitrile]
KRAS G12D
  IC50: < 500 nM
MiaPaca2 cells
  IC50: ≤ 500 nM

## C=C1CN2CC(=C)CC2(COc2nc(N(CC)[C@@H]3CCN(C(=O)n4cnc(Cl)n4)[C@@H]3C)c3cc(C(F)(F)F)c(-c4ccc(F)c5sc(N)c(C#N)c45)c(F)c3n2)C1 [Compound 219, 2-amino-4-(4-(((2R,3R)-1-(3-chloro-1H-1,2,4-triazole-1-carbonyl)-2-methylpyrrolidin-3-yl)(ethyl)amino)-2-((2,6-dimethylenetetrahydro-1H-pyrrolizin-7a(5H)-yl)methoxy)-8-fluoro-6-(trifluoromethyl)quinazolin-7-yl)-7-fluorobenzo[b]thiophene-3-carbonitrile]
KRAS G12D
  IC50: < 500 nM
KRAS WT
  IC50: < 500 nM
KRAS G12S
  IC50: < 500 nM
KRAS G12V
  IC50: < 500 nM
